{"source": "patent US20120027807A1", "about": "“TISSUE ENGINEERED MYOCARDIUM AND METHODS OF PRODUCTION AND USES THEREOF” (THE GENERAL HOSPITAL CORPORATION, priority 2008, published 2012)", "key": {"[1]": {"tested_on": "R+G+ derived ventricular myocytes", "format": "cell-based, mouse"}, "[2]": {"tested_on": "gap junctions (e.g. Connexin 43)", "test": "Heptanol wash-in / wash-out on muscular thin film", "format": "cell-based, mouse", "text": "FIGS. 10A-10D show the tissue engineered myocardium on a muscular thin film derived from cardiac progenitor cells. […] All the heptanol was not washed-out resulting in the reduced contractility after cell-cell electrical coupling was restored."}}}
{"smiles": "NC1=N[C@H](O)[C@H]2[C@H]3O[C@]4(O)O[C@@H]([C@@H](O)[C@@]2(N1)[C@@H]4O)[C@]3(O)CO", "note": "[TTX, tetrodotoxin]", "values": [{"measurement": "effect on the transmembrane action potential", "setting": "[1]", "result": "ablated the action potential"}]}
{"smiles": "CCCCCCCO", "note": "[heptanol]", "values": [{"measurement": "contractions after heptanol wash-out", "setting": "[2]; partial wash-out", "result": "partial washout restores contractions"}, {"measurement": "coupling of cardiomyocytes by gap junctions", "setting": "[2]; wash-in then wash-out of heptanol, MTF contractile force over time", "result": "reversibly blocked"}]}
